Patent publication US8710058B2, “Polymorphic forms of 3-(1-{3-[5-(1-methyl-piperidin-4-ylmethoxy)-pyrimidin-2-yl]-benzyl}-6-oxo-1,6-dihydro-pyridazin-3-yl)-benzonitrile hydrochloride salt and processes of manufacturing thereof” (MERCK PATENT GmbH, priority 2009, dated 2014)
“Also recorded” adds a separate entry of the source. Like-named read-outs stand apart in the source and are kept apart here.

How the values were obtained:
[1] = Water Vapor Sorption isotherm (25° C., SMS DVS); assay type: physicochemical; conditions: for Hygroscopicity classification acc. to Ph. Eur. criteria: up to 98% RH
Source text: The crystalline modifications of the present invention can be characterized according to standard methods which can be found e.g. in Rolf Hilfiker, ‘Polymorphism in the Pharmaceutical Industry’, Wiley-VCH, Weinheim 2006, and references therein, e.g. X-Ray diffraction (XRD; chapter 6), IR and Raman spectroscopy (chapter 5), Differential Scanning calorimetry (DSC) and Thermogravimetric Analysis (TGA) (chapter 3), Water Vapour Sorption Studies (chapter 9), or which can be found e.g. in H. G. Brittain (editor), Polymorphism in Pharmaceutical Solids, Vol. 95, Marcel Dekker Inc., New York 1999 (chapter 6: all there mentioned techniques).
FIG. 6 depicts the Water Vapour Sorption Isotherm (25° C.) (SMS DVS 1) of crystalline modification A1 of 3-(1-{3-[5-(1-methyl-piperidin-4-ylmethoxy)-pyrimidin-2-yl]-benzyl}-6-oxo-1,6-dihydro-pyridazin-3-yl)-benzonitrile hydrochloride anhydrate.
FIG. 12 depicts the Water Vapour Sorption Isotherm (25° C.) (SMS DVS Intrinsic) of crystalline modification H1 of 3-(1-{3-[5-(1-methyl-piperidin-4-ylmethoxy)-pyrimidin-2-yl]-benzyl}-6-oxo-1,6-dihydro-pyridazin-3-yl)-benzonitrile hydrochloride hydrate.
FIG. 18 depicts the Water Vapour Sorption Isotherm (25° C.) (SMS DVS Advantage) of crystalline modification NF3 of 3-(1-{3-[5-(1-methyl-piperidin-4-ylmethoxy)-pyrimidin-2-yl]-benzyl}-6-oxo-1,6-dihydro-pyridazin-3-yl)-benzonitrile hydrochloride hydrate.
FIG. 25 depicts the Water Vapour Sorption Isotherm (25° C.) (SMS DVS Intrinsic) of crystalline modification H2 of 3-(1-{3-[5-(1-methyl-piperidin-4-ylmethoxy)-pyrimidin-2-yl]-benzyl}-6-oxo-1,6-dihydro-pyridazin-3-yl)-benzonitrile hydrochloride monohydrate.
FIG. 33 depicts the Water Vapour Sorption Isotherm (25° C.) (SMS DVS Intrinsic) of crystalline modification NF6 of 3-(1-{3-[5-(1-methyl-piperidin-4-ylmethoxy)-pyrimidin-2-yl]-benzyl}-6-oxo-1,6-dihydro-pyridazin-3-yl)-benzonitrile hydrochloride anhydrate.
FIG. 38 depicts the Water Vapour Sorption Isotherm (25° C.) (SMS DVS Intrinsic) of crystalline modification NF2 of 3-(1-{3-[5-(1-methyl-piperidin-4-ylmethoxy)-pyrimidin-2-yl]-benzyl}-6-oxo-1,6-dihydro-pyridazin-3-yl)-benzonitrile hydrochloride hydrate.

[2] = Kinetic solubility (after 60 minutes) in 0.1 N HCl; conditions: 0.1 N HCl (pH 1.0); for Kinetic Solubility (after 60 minutes): room temperature (approx. 20-25° C.)
[3] = Thermodynamic solubility in 0.1 N HCl at 37° C.; conditions: 0.1 N HCl (pH 1.0); for Thermodynamic Solubility: 37° C.
[4] = Solubility in Simulated Gastric Fluid (acc. to USP); conditions: 20 °C, thermodynamic from solid
[5] = Competitive binary slurry conversion experiments (thermodynamic stability of hydrate forms); conditions: different solvents at 25° C. and 50° C.
[6] = pH 1

CN1CCC(COc2cnc(-c3cccc(Cn4nc(-c5cccc(C#N)c5)ccc4=O)c3)nc2)CC1.Cl [crystalline modification A1, 3-(1-{3-[5-(1-methyl-piperidin-4-ylmethoxy)-pyrimidin-2-yl]-benzyl}-6-oxo-1,6-dihydro-pyridazin-3-yl)-benzonitrile hydrochloride anhydrate]
Hygroscopic behavior ([1]; at 98% RH): strongly hygroscopic
Water uptake level ([1]; at 98% relative humidity): > 15 wt %
Water uptake upon adsorption ([1]; range 0-90% relative humidity): very small water uptake levels

CN1CCC(COc2cnc(-c3cccc(Cn4nc(-c5cccc(C#N)c5)ccc4=O)c3)nc2)CC1.Cl.O [crystalline modification H1, 3-(1-{3-[5-(1-methyl-piperidin-4-ylmethoxy)-pyrimidin-2-yl]-benzyl}-6-oxo-1,6-dihydro-pyridazin-3-yl)-benzonitrile hydrochloride hydrate]
Water uptake level ([1]; at 80% RH): > 15 wt %
Hygroscopic behaviour ([1]; relative humidity levels >70%): strongly hygroscopic
Kinetic Solubility (after 60 minutes) ([2]; hydrochloride hydrate): approx. 3 μg/mL
Solubility compared to crystalline modification H2 ([2]; kinetic solubility): significantly increased solubility

CN1CCC(COc2cnc(-c3cccc(Cn4nc(-c5cccc(C#N)c5)ccc4=O)c3)nc2)CC1.Cl.O [crystalline modification H2, 3-(1-{3-[5-(1-methyl-piperidin-4-ylmethoxy)-pyrimidin-2-yl]-benzyl}-6-oxo-1,6-dihydro-pyridazin-3-yl)-benzonitrile hydrochloride monohydrate]
Behaviour of hydrate water under dry RH conditions ([1]; hydrochloride monohydrate): no loss of hydrate water
Hygroscopicity classification acc. to Ph. Eur. criteria ([1]; hydrochloride monohydrate): non-hygroscopic
Water uptake ([1]; up to 98% relative humidity (RH range 0-98%), hydrochloride monohydrate): small water uptake levels; also recorded: very small water uptake levels
Thermodynamic Solubility ([3]; hydrochloride monohydrate): approx. 28 μg/mL
Kinetic Solubility (after 60 minutes) ([2]; hydrochloride monohydrate): approx. 0.3 μg/mL
solubility [4]: ~20 µg/mL
Thermodynamic stability compared to other hydrate forms H1 and NF3 [5]: thermodynamically stable hydrate form

CN1CCC(COc2cnc(-c3cccc(Cn4nc(-c5cccc(C#N)c5)ccc4=O)c3)nc2)CC1.Cl.O [crystalline modification NF2, 3-(1-{3-[5-(1-methyl-piperidin-4-ylmethoxy)-pyrimidin-2-yl]-benzyl}-6-oxo-1,6-dihydro-pyridazin-3-yl)-benzonitrile hydrochloride hydrate]
Weight loss in water vapor sorption ([1]; initial 40% RH sorption stage): ~10 wt %

CN1CCC(COc2cnc(-c3cccc(Cn4nc(-c5cccc(C#N)c5)ccc4=O)c3)nc2)CC1.Cl.O [crystalline modification NF3, 3-(1-{3-[5-(1-methyl-piperidin-4-ylmethoxy)-pyrimidin-2-yl]-benzyl}-6-oxo-1,6-dihydro-pyridazin-3-yl)-benzonitrile hydrochloride hydrate]
Water uptake level ([1]; at 98% relative humidity): approx. 9 wt %
Behaviour of hydrate water under dry RH conditions ([1]; hydrochloride hydrate): dehydration of hydrate water occurs
Hygroscopicity classification acc. to Ph. Eur. criteria ([1]; hydrochloride hydrate): slightly-hygroscopic
Thermodynamic Solubility ([3]; hydrochloride hydrate): approx. 70 μg/mL
Solubility compared to crystalline modification H2 ([3]; thermodynamic solubility): significantly increased solubility

CN1CCC(COc2cnc(-c3cccc(Cn4nc(-c5cccc(C#N)c5)ccc4=O)c3)nc2)CC1.Cl [crystalline modification NF6, 3-(1-{3-[5-(1-methyl-piperidin-4-ylmethoxy)-pyrimidin-2-yl]-benzyl}-6-oxo-1,6-dihydro-pyridazin-3-yl)-benzonitrile hydrochloride anhydrate]
Water uptake ([1]; 2nd adsorption cycle, up to 70% RH): approx. 8 wt %
Water uptake in initial sorption stage ([1]; initial sorption stage at 40% relative humidity): pronounced water uptake
Thermodynamic Solubility [6]: > 200 µg/mL
